Test results reported in patent US10695409B2, “Universal cancer peptides derived from telomerase” (INVECTYS, priority 2012, dated 2020).

Legend:
CD4 T cells [1] = assay: Ex vivo IFN-γ ELISPOT of CD8 depleted spleen lymphocytes from TERT DNA-immunized mice; type: in vivo, A2/DR1 mice; conditions: mice immunized with DNA encoding TERT
Method: (5A-5B), A2/DR1 mice (n=8) were immunized twice with a DNA encoding TERT.
(5B), CD8 depleted spleen lymphocytes from DNA-immunized mice were assayed in ex vivo IFN-γ ELISPOT. Columns mean of triplicate from 4 mice; bars, SD.
To study the processing of UCP, A2/DR1 mice were immunized with a pTrip-TERT DNA (100 μg) at days 0 and 14 as previously reported (Adotevi et al, 2010). In some experiment CD4 T cells were depleted with anti-CD4 mAb treatment (clone GK1.5) prior DNA immunization. For UCP immunization, mice were injected with 100 μg of each UCP emulsified in incomplete Freund adjuvant (IFA, Sigma-Aldrich, France). In some experiments, 50 μg of pY988 peptide was co-injected with 100 μg of each UCP in IFA. All peptide vaccinations were done subcutaneously (s.c) at the right abdominal flank. Eight to ten week-old mice were bred and maintained in our animal facilities. All experiments were done according to the good laboratory practices defined by animal experimentation rules in France.
Ex vivo pentamer staining was performed as previously described (Adotevi et al, 2010; Adotevi et al, 2006). Cells were stained with PE-conjugated pY988 and pY572 HLA-A2.1 pentamer (ProImmune, UK). After cell staining, samples were analyzed by flow cytometry on a FACS Canto II (BD Biosciences, France) and using Diva software. […]
The inventors and others have previously reported that the use of humanized HLA transgenic mice models to screen for human tumor antigens represents a potent alternative to optimize “reverse immunology” approaches for epitope identification (Adotevi et al, 2006; Osen et al, 2010). […] To assess whether UCPs can be endogenously processed from the TERT protein, the inventors performed immunizations with a plasmid DNA encoding the full length TERT sequence and the UCP-specific CD4 splenocytes were monitored by a five-day 3H-thymidine incorporation assay. […] To this end, freshly isolated CD4 T cells from UCP-vaccinated mice were cultured in the presence of syngenic iDC pulsed or not with UCP and cytokines production was measured.

[2] = tested on: UCP-specific CD4 T cell clones; assay: TNF secretion of UCP-specific CD4 T cell clones from cancer patient, flow cytometry; type: cell-based, human; conditions: CD4 T cell clones with cognate peptide, 5 h, Brefeldin A; read-out: peptide concentration at half-maximal TNF secretion
Method: T cell clones were obtained by limiting dilution of cancer patients T cell lines stimulated one time with the pool of UCPs. (2A and 2C) Percentage of TNF-producing T cells and of T cell clones isolated from patients GE001 in response to 10 μM of the relevant UCP; 10^5 T cells were incubated for 5 h in the presence of Brefeldin A, stained with CD4 antibody, fixed, and stained with anti-TNF antibody in a permeabilization buffer; 10^4 T cells were then analyzed in flow cytometry. (2B and 2D) Reactivity of the CD4 T cell clones in response to relevant UCP. CD4 T cell clones were culture with a range of the indicated peptide concentration. TNF secretion was assessed 5 h in the presence of Brefeldin A, by flow cytometry. (2E) Detection of cytokines produced by GE001.36 T cell clone in response to 10 μM of UCP4 using human ten-plex cytokines assay. […]
For intracytoplasmic cytokine staining, after a 5-h stimulation period with or without 10 μM peptide, T cells were labeled with anti-CD4 (BD Bioscience, USA) and anti-TNF-α (ebioscience, USA) using Cytofix/Cytoperm KIT (BD Bioscience). […] Samples were acquired on a FACS Canto II (BD Biosciences) and analyzed with the DIVA software. […]

HLA-DR DR11 = assay: HLA-DR binding assay, competitive ELISA; design: species or system human; conditions: means of three experiments
HLA-DR DRB4 = HLA-DR DRB4 (Homo sapiens, UniProt P01903+P13762); assay: HLA-DR binding assay, competitive ELISA; conditions: means of three experiments
Method: (§1) Synthetic peptides (>80% purity) were purchased from Activotec (Cambridge, United Kingdom). The binding capacity to HLA-DR molecules was assessed by competitive ELISA as previously reported (Wang et al).
(§2) To predict the existence of CD4 epitopes within the amino acid sequence of TERT capable of binding to multiple HLA-DR molecules, the inventors have combined results from three algorithms Syfpeithi, NetMHCpan-2.1 and NetMHC2.2. They have selected four 15-mers peptide sequences referred as UCP1 to UCP4 that scored high in the probability scale for their binding capacity to the commonly found human HLA-DR alleles (Table 1). […] Data are expressed as relative activity RA (ratio of the IC50 of UCPs to the IC50 of the reference peptide) and are the means of three experiments. Good binders have a […] and weak binder are […].

HLA-DR DR13 = assay: HLA-DR binding assay, competitive ELISA; design: species or system human; conditions: means of three experiments
Method: as §1, §2

HLA-DR DR3 = assay: HLA-DR binding assay, competitive ELISA; design: species or system human; conditions: means of three experiments
Method: as §1, §2

[3] = tested on: blood lymphocytes from NSCLC patients and healthy volunteers; assay: Spontaneous UCP-specific T cell responses, IFN-γ ELISPOT after one week stimulation; type: cell-based, human; conditions: frequency of T cell responses
CD4 T cells [4] = assay: Avidity of UCP-specific CD4 T cells from UCP-immunized mice, IFN-γ ELISPOT; type: in vivo, A2/DR1 mice; conditions: vaccinated once, ~1 μg peptide
Method: (5C-5D), Mice (3-4/group) were immunized once with each UCP in IFA.
(5D), Isolated CD4 T cells were cultured ex vivo with increasing concentrations of peptide as indicated. IFN-γ production was measured by ELISPOT. Curves, mean responses from 3 mice, bars, SD.
(5E), Mice were vaccinated once with low dose of UCP as indicated. UCP-specific T cell responses were evaluated in spleen by ex vivo IFN-γ ELISPOT.
(§3) To study the processing of UCP, A2/DR1 mice were immunized with a pTrip-TERT DNA (100 μg) at days 0 and 14 as previously reported (Adotevi et al, 2010). In some experiment CD4 T cells were depleted with anti-CD4 mAb treatment (clone GK1.5) prior DNA immunization. For UCP immunization, mice were injected with 100 μg of each UCP emulsified in incomplete Freund adjuvant (IFA, Sigma-Aldrich, France). In some experiments, 50 μg of pY988 peptide was co-injected with 100 μg of each UCP in IFA. […]
(§4) Ex vivo pentamer staining was performed as previously described (Adotevi et al, 2010; Adotevi et al, 2006). […] After cell staining, samples were analyzed by flow cytometry on a FACS Canto II (BD Biosciences, France) and using Diva software. […]
Next, to assess the avidity of UCP-specific CD4 T cell, freshly purified CD4 T cells from UCP-immunized mice were cultured in the presence of increasing concentrations of peptide and the number of specific IFN-γ producing CD4 T cells was measured by ELISPOT. […]

HLA-DR molecules = assay: HLA-DR binding assay, competitive ELISA, summary over the alleles tested; design: species or system human; conditions: RA intermediate 100-500, low <100
Method: as §1, §2
Thus, according to phenotypic frequencies of the 10 prevalent HLA-DR antigens, these peptides could cover more than 90% of population (Wang et al).

[5] = tested on: immature bone marrow-derived DCs; assay: In vitro DC-CD4 T cell co-culture; type: cell-based, A2/DR1 mice; conditions: CD4 T cells from UCP2/IFA versus IFA injected mice
Method: 8B, Schema of the in vitro DC-CD4 T cell co-culture.
8C, IFN-γ and GM-CSF production measured by ELISA in the supernatant.
8D, Expression of CD86 and HLA-DR on CD11c+ DC.
8E, Interleukin 12 production measured in supernatant by ELISA.
Spleen or lymph nodes CD11c+ DCs from peptide-immunized mice were directly analyzed for co-stimulatory receptor expression. In some experiments, immature bone marrow-derived DCs (iDC) from A2/DR1 mice were cultured 15-h with CD4 T cells from mice immunized with UCP or IFA alone and then stained for cell surface expression of co-stimulatory receptors and cytokines production.
The induction of dendritic cell activation represents one major helper mechanism used by CD4+ Th1 cells to sustain antigen presentation and provide costimulatory signals to the CTLs. This is referred as the “ménage à trois” model (Ridge et al, 1998). To test this mechanism, the inventors have analyzed the expression of co-stimulating receptors on DCs from mice immunized with the mix of pY988+/−UCP2. […] In a second set of experiments, isolated CD4 T cells from UCP2/IFA or IFA injected mice were co-cultured with syngenic iDCs as shown in FIG. 8B. As expected, UCP2-specific CD4 T cells produced significant amounts of Th1 cytokines such as IFN-γ and GM-CSF (FIG. 8C).

[6] = tested on: pY988-specific CD8 T cells; assay: Co-immunization pY988 plus UCP: pY988-specific CTL response by pentamer staining and IFN-γ ELISPOT; type: in vivo, A2/DR1 mice; conditions: pY988 plus UCP in IFA versus pY988/IFA alone, day 10, spleen
Description: Mice (3/group) were immunized either with pY988 plus each UCP in IFA or with pY988/IFA alone and the immune responses were monitored ten days later in the spleen. 6A, freshly isolated CD8 T cells were stained with TERT pY988/A2+ pentamer. Representative flow cytometry dot plots (upper panel) and mean percentages of pY988/A2+ CD8 T cells (lower panel) are shown.
6B, Ex vivo detection of anti-pY988 CD8 T cells by IFN-γ ELISPOT.
as §3, §4
CD4 T cell helper functions are thought to be important for the generation of potent and sustained CTL responses (Shedlock et al, 2003). […] The pY988-specific CTL response was measured ex vivo by pentamer staining and ELISPOT assays. […]

SLCYSILKAKNAGMS [UCP4, universal cancer peptide derived from TERT, 15-mer]
specific CD4 T cell responses detected (CD4 T cells [1]): in all immunized mice | EC50 [2]: < 0.1 µM | Relative affinity RA (ratio of the IC50 of UCPs to the IC50 of the reference peptide) (HLA-DR DR11): 0,3 | Relative affinity RA (ratio of the IC50 of UCPs to the IC50 of the reference peptide) (HLA-DR DRB4): >500 | Relative affinity RA (ratio of the IC50 of UCPs to the IC50 of the reference peptide) (HLA-DR DR13): >500 | Relative affinity RA (ratio of the IC50 of UCPs to the IC50 of the reference peptide) (HLA-DR DR3): >500 | CD4 T cell responses to individual UCPs [3]: more immunogenic

GTAFVQMPAHGLFPW [UCP3]
specific CD4 T cell responses detected (CD4 T cells [1]): in all immunized mice | IFN-γ+ CD4 T cells after low dose vaccination (CD4 T cells [4]): stimulated potent IFN-γ+ CD4 T cells

KSVWSKLQSIGIRQH [UCP2, universal cancer peptide derived from TERT, 15-mer]
specific CD4 T cell responses detected (CD4 T cells [1]): in all immunized mice | IFN-γ+ CD4 T cells after low dose vaccination (CD4 T cells [4]): stimulated potent IFN-γ+ CD4 T cells | capacity to bind HLA-DR molecules (HLA-DR molecules): able to bind every HLA-DR molecules tested | EC50 [2]: ~4 µM | CD4 T cell responses to individual UCPs [3]: more immunogenic | DC activation and interleukin-12 production in presence of UCP2-specific CD4 T cells [5]: induced potent DCs activation

PAAFRALVAQCLVCV (listed as Homo sapiens) [UCP1, universal cancer peptide derived from TERT, 15-mer]
capacity to bind HLA-DR molecules (HLA-DR molecules): able to bind every HLA-DR molecules tested | Relative affinity RA (ratio of the IC50 of UCPs to the IC50 of the reference peptide) (HLA-DR DR11): 25 | frequency of pY988/A2 pentamer+ CD8 T cells [6]: little impact | Relative affinity RA (ratio of the IC50 of UCPs to the IC50 of the reference peptide) (HLA-DR DR3): 0.4
